{"source": "PubChem BioAssay AID330", "about": "(DTP/NCI, 2004)", "test_system": "P388 leukemia ip, CD2F1 mice, survival T/C", "experiment": "NCI In Vivo Anticancer Drug Screen. Data for tumor model P388 Leukemia (intraperitoneal) in CD2F1 (CDF1) mice", "details": "endpoint: median survival time, higher = longer survival", "in_short": "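Mice carrying the transplanted tumor received test compound or vehicle. Survival was recorded in each group, and the value is the treated-group measurement divided by that of the vehicle-treated control group.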", "key": {"[1]": {"details": "dose: 50.0 mg/kg/injection, schedule: Q01DX009 (ip), vehicle: Klucel (hydroxypropylcellulose) (HPC)"}, "[2]": {"details": "dose: 100.0 mg/kg/injection, schedule: Q01DX009 (ip), vehicle: Klucel (hydroxypropylcellulose) (HPC)"}, "[3]": {"details": "dose: 200.0 mg/kg/injection, schedule: Q01DX009 (ip), vehicle: Klucel (hydroxypropylcellulose) (HPC)"}}, "note": "Values joined by “and” are separate entries in the source; they are usually repeats but may differ in a detail not shown here. Equal values may be shown once. Inconclusive results and toxic doses are left out.", "data": [{"compound": "NC(=S)N/N=C/c1c(Cl)nc2n1CCS2", "values": [{"measurement": "T/C", "setting": "dose: 100.0 mg/kg/injection, schedule: Q01DX001 (ip), vehicle: Klucel (hydroxypropylcellulose) (HPC)", "result": "94 % of control"}, {"measurement": "T/C", "setting": "dose: 200.0 mg/kg/injection, schedule: Q01DX001 (ip), vehicle: Klucel (hydroxypropylcellulose) (HPC)", "result": "93 % of control"}, {"measurement": "T/C", "setting": "dose: 400.0 mg/kg/injection, schedule: Q01DX001 (ip), vehicle: Klucel (hydroxypropylcellulose) (HPC)", "result": "92 % of control"}]}, {"compound": "Cc1ccc2c(=O)[nH]cnc2c1", "values": [{"measurement": "T/C", "setting": "dose: 12.5 mg/kg/injection, schedule: Q01DX009 (ip), vehicle: Klucel (hydroxypropylcellulose) (HPC)", "result": "100 % of control"}, {"measurement": "T/C", "setting": "dose: 25.0 mg/kg/injection, schedule: Q01DX009 (ip), vehicle: Klucel (hydroxypropylcellulose) (HPC)", "result": "98 % of control and 100 % of control"}, {"measurement": "T/C", "setting": "[1]", "result": "99 % of control and 103 % of control"}, {"measurement": "T/C", "setting": "[2]", "result": "101 % of control and 110 % of control and 97 % of control"}, {"measurement": "T/C", "setting": "[3]", "result": "113 % of control"}]}, {"compound": "O=C1CCc2nc3ccccc3c(=O)n21", "values": [{"measurement": "T/C", "setting": "[1]", "result": "96 % of control"}, {"measurement": "T/C", "setting": "[2]", "result": "96 % of control"}, {"measurement": "T/C", "setting": "[3]", "result": "94 % of control"}, {"measurement": "T/C", "setting": "dose: 400.0 mg/kg/injection, schedule: Q01DX009 (ip), vehicle: Klucel (hydroxypropylcellulose) (HPC)", "result": "100 % of control"}]}, {"compound": "C=C1C(=O)CC2C3C1C2(C)CCC(OC(C)=O)C3(C)C", "note": "(stereo unspecified)", "values": [{"measurement": "T/C", "setting": "dose: 5.5 mg/kg/injection, schedule: Q01DX005 (ip), vehicle: Klucel (hydroxypropylcellulose) (HPC)", "result": "93 % of control"}, {"measurement": "T/C", "setting": "dose: 11.0 mg/kg/injection, schedule: Q01DX005 (ip), vehicle: Klucel (hydroxypropylcellulose) (HPC)", "result": "93 % of control"}, {"measurement": "T/C", "setting": "dose: 22.0 mg/kg/injection, schedule: Q01DX005 (ip), vehicle: Klucel (hydroxypropylcellulose) (HPC)", "result": "100 % of control"}, {"measurement": "T/C", "setting": "dose: 44.0 mg/kg/injection, schedule: Q01DX005 (ip), vehicle: Klucel (hydroxypropylcellulose) (HPC)", "result": "103 % of control"}]}, {"compound": "CCC(C)C1NC(=O)C(NC(=O)c2c3nc4c(C(=O)NC5C(=O)NC(C(C)CC)C(=O)N6CCCC6C(=O)N(C)CC(=O)N(C)C(C(C)C)C(=O)OC5C)cc(N)c(C)c4oc-3c(C)c(=O)c2N)C(C)OC(=O)C(C(C)C)N(C)C(=O)CN(C)C(=O)C2CCCN2C1=O", "note": "(stereo unspecified)", "values": [{"measurement": "T/C", "setting": "dose: 0.1 mg/kg/injection, schedule: Q01DX009 (ip), vehicle: Klucel (hydroxypropylcellulose) (HPC)", "result": "247 % of control"}, {"measurement": "T/C", "setting": "dose: 0.2 mg/kg/injection, schedule: Q01DX009 (ip), vehicle: Klucel (hydroxypropylcellulose) (HPC)", "result": "230 % of control"}, {"measurement": "T/C", "setting": "dose: 100.0 micrograms/kg/injection, schedule: Q01DX009 (ip), vehicle: water", "result": "152 % of control"}, {"measurement": "T/C", "setting": "dose: 150.0 micrograms/kg/injection, schedule: Q01DX009 (ip), vehicle: water", "result": "166 % of control"}, {"measurement": "T/C", "setting": "dose: 225.0 micrograms/kg/injection, schedule: Q01DX009 (ip), vehicle: water", "result": "177 % of control"}]}, {"compound": "CN1C2Cc3cc4c(cc3[C@@]23Cc2ccc5c(c2[C@@H]1O3)OCO5)OCO4", "note": "(stereo partly specified)", "values": [{"measurement": "T/C", "setting": "dose: 8.0 mg/kg/injection, schedule: Q01DX005 (ip), vehicle: Klucel (hydroxypropylcellulose) (HPC)", "result": "94 % of control"}, {"measurement": "T/C", "setting": "dose: 16.0 mg/kg/injection, schedule: Q01DX005 (ip), vehicle: Klucel (hydroxypropylcellulose) (HPC)", "result": "109 % of control"}, {"measurement": "T/C", "setting": "dose: 32.0 mg/kg/injection, schedule: Q01DX005 (ip), vehicle: Klucel (hydroxypropylcellulose) (HPC)", "result": "94 % of control"}, {"measurement": "T/C", "setting": "dose: 64.0 mg/kg/injection, schedule: Q01DX005 (ip), vehicle: Klucel (hydroxypropylcellulose) (HPC)", "result": "98 % of control"}]}, {"compound": "CCCCN(CCCC)Cc1c(C)[nH]c2ccc(N(C)C)cc2c1=O", "values": [{"measurement": "T/C", "setting": "dose: 50.0 mg/kg/injection, schedule: Q01DX009 (ip), vehicle: suspension in saline", "result": "108 % of control"}, {"measurement": "T/C", "setting": "dose: 100.0 mg/kg/injection, schedule: Q01DX009 (ip), vehicle: suspension in saline", "result": "103 % of control"}]}, {"compound": "CC(C)(C)N1CCOCN2CCCCC2CCN(C(C)(C)C)CCOCN2CCCCC2CC1", "note": "(stereo unspecified)", "values": [{"measurement": "T/C", "setting": "dose: 50.0 mg/kg/injection, schedule: Q01DX005 (ip), vehicle: saline", "result": "100 % of control"}, {"measurement": "T/C", "setting": "dose: 100.0 mg/kg/injection, schedule: Q01DX005 (ip), vehicle: saline", "result": "99 % of control"}, {"measurement": "T/C", "setting": "dose: 200.0 mg/kg/injection, schedule: Q01DX005 (ip), vehicle: saline", "result": "100 % of control"}]}, {"compound": "NC(=O)C(NC(=O)c1ccc([N+](=O)[O-])cc1)C(N)=O", "values": [{"measurement": "T/C", "setting": "dose: 100.0 mg/kg/injection, schedule: Q04DX003 (ip), vehicle: saline", "result": "103 % of control"}, {"measurement": "T/C", "setting": "dose: 200.0 mg/kg/injection, schedule: Q04DX003 (ip), vehicle: saline", "result": "103 % of control"}, {"measurement": "T/C", "setting": "dose: 400.0 mg/kg/injection, schedule: Q04DX003 (ip), vehicle: saline", "result": "103 % of control"}]}, {"compound": "CCC12CN3CCc4c([nH]c5ccccc45)C(C(=O)OC)(c4cc5c(cc4OC)N(C)C4C(O)(C(=O)OC)C(OC(C)=O)C6(CC)C=CCN7CCC54C76)CC(C3=O)C1O2", "note": "(stereo unspecified)", "values": [{"measurement": "T/C", "setting": "dose: 4.0 mg/kg/injection, schedule: Q01DX001 (ip), vehicle: water", "result": "118 % of control"}, {"measurement": "T/C", "setting": "dose: 32.0 mg/kg/injection, schedule: Q01DX001 (ip), vehicle: water", "result": "116 % of control"}, {"measurement": "T/C", "setting": "dose: 64.0 mg/kg/injection, schedule: Q01DX001 (ip), vehicle: water", "result": "169 % of control"}]}]}
